Test results taken from patent US8849577B2, “Methods of identifying biochemical pathways” (Metabolon, Inc., priority 2006, dated 2014).
Entries after “also recorded” stand apart in the source; their conditions may differ.

How the values were obtained:
Type in all cases: cell-based, human
[1] = system: adipocyte cells; assay: Metabolomic analysis of test compounds in adipocyte cultures; conditions: Primary Adipocytes, 30 μM, vs DMSO; for number of compounds affected, # decreased / number of compounds affected, # increased: p < 0.01
Description: (§1) The cell cultures used in this example were performed according to standard protocols with the cells in 10% FCS. […] The adipocytes were human and fully differentiated.
(§2) The target of the agent is not present in the cell cultures assayed, thus the changed compounds for each culture represent off-target effects, and therefore, the number of changed compounds can be used to generate a score that can be used as one criteria to rank the test compounds.

[2] = system: HepG2; assay: Metabolomic analysis of test compounds in HepG2 (hepatocyte) cultures; conditions: Hepatocytes, 30 μM, vs DMSO; for number of compounds affected, # decreased / number of compounds affected, # increased: p < 0.01
Description: as §1, §2

[3] = system: preadipocyte cells; assay: Comparative metabolomic analysis of PPAR activators in preadipocyte cells; conditions: 3 hours treatment
Description: The cell used in this assay were preadipocyte cells from a human with a BMI of 23.29. The cells were plated at 1 million per well in 6-well plates. Eight cultures were used for each experimental group. The cells were washed with basal medium (1 ml/well) and treated with compounds in 1 ml of basal medium for 3 hours. After treatment, the cells were then washed with PBS (1 ml), two times and then trypsinized with 300 μl for 5 minutes at 37 degrees. One ml of PM-1 was then added per well to neutralized the trypsin and the cells were collected in 1.5 ml eppendorf tube. The cells were then pelleted by centrifugation (280×g) and the pellets were washed with PBS (1 ml). The cell pellets were then frozen at −80 degrees.

| SMILES | Ratio Drug/DMSO: 3-phospho-I-serine [3] | Ratio Drug/DMSO: Isobar-17-includes-arginine-N-alpha-acetyl-ornithine [3] | Ratio Drug/DMSO: Isobar-22-includes-glutamic acid-O-acetyl-L-serine [3] | Ratio Drug/DMSO: Isobar-28-includes-L-threonine-L-allothreonine-L-homoserine [3] | Ratio Drug/DMSO: L-alpha-glycerophosphorylcholine [3] | Ratio Drug/DMSO: N-acetyl-D-galactosamine [3] | Ratio Drug/DMSO: adenosine-5-monophosphate [3] | Ratio Drug/DMSO: alanine [3] | Ratio Drug/DMSO: carnitine [3] | Ratio Drug/DMSO: citric acid [3] | Ratio Drug/DMSO: gly-gly [3] | Ratio Drug/DMSO: glycerol [3] | Ratio Drug/DMSO: guanosine [3] | Ratio Drug/DMSO: hypoxanthine [3] | Ratio Drug/DMSO: inosine [3] | Ratio Drug/DMSO: n-hexadecanoic acid [3] | Ratio Drug/DMSO: octadecanoic acid [3] | Ratio Drug/DMSO: pantothenic acid [3] | Ratio Drug/DMSO: phosphoenolpyruvate [3] | Ratio Drug/DMSO: serine [3] | further results |
| --- | --- | --- | --- | --- | --- | --- | --- | --- | --- | --- | --- | --- | --- | --- | --- | --- | --- | --- | --- | --- | --- |
| COC(=O)N[C@H](C(=O)N[C@@H](Cc1ccccc1)[C@@H](O)CN(Cc1ccc(-c2ccccn2)cc1)NC(=O)[C@@H](NC(=O)OC)C(C)(C)C)C(C)(C)C [ATV] | – | – | – | – | – | – | – | – | – | – | – | – | – | – | – | – | – | – | – | – | number of compounds affected, Total p < 0.01 [1]: 87; number of compounds affected, # decreased [1]: 55; number of compounds affected, # increased [1]: 32; number of compounds affected, Total p < 0.01 [2]: 71; number of compounds affected, # decreased [2]: 55; number of compounds affected, # increased [2]: 16 |
| CC1(COc2ccc(CC3SC(=O)NC3=O)cc2)CCCCC1 (stereo not shown) [Ciglitazone] | 0.91 | 0.87 | 0.99 | 0.72 | 1.81 | 0.36 | 1.09 | 0.91 | 0.90 | 0.86 | 1.36 | 0.93 | 1.55 | 1.76 | 2.25 | 1.05 | 1.05 | 1.10 | 0.76 | 0.98 | Ratio Drug/DMSO: aspartate [3]: 1.29; Ratio Drug/DMSO: gamma-L-glutamyl-L-glutamin [3]: 0.73; Ratio Drug/DMSO: glutamine [3]: 0.78; Ratio Drug/DMSO: o-phosphoethanolamine [3]: 5.42; Ratio Drug/DMSO: oxidized-glutathione [3]: 0.77; Ratio Drug/DMSO: sn-glycerol-3-phosphate [3]: 1.53; Ratio Drug/DMSO: threonine [3]: 0.84; Ratio Drug/DMSO: tryptophan [3]: 0.91 |
| CC(C)(Sc1ccc(CCN(CCCCC2CCCCC2)C(=O)NC2CCCCC2)cc1)C(=O)O [GW7647] | 0.89 | 0.97 | 0.86 | 0.82 | 1.31 | 0.98 | 1.41 | 0.95 | 0.83 | 1.06 | 1.12 | 1.14 | 1.22 | 1.89 | 1.89 | 1.02 | 1.02 | 0.96 | 0.91 | 1.05 | Ratio Drug/DMSO: sn-glycerol-3-phosphate [3]: 1.43; Ratio Drug/DMSO: tryptophan [3]: 1.06; metabolite change relative to DMSO control [3]: increase in glycerol; also recorded: more carnitine is being utilized to shuffle FA into the mitochondria and hence, levels decrease |
| Cc1cccc(C)c1OCC(=O)N[C@@H](Cc1ccccc1)[C@@H](O)C[C@H](Cc1ccccc1)NC(=O)[C@H](C(C)C)N1CCCNC1=O [LPV] | – | – | – | – | – | – | – | – | – | – | – | – | – | – | – | – | – | – | – | – | number of compounds affected, Total p < 0.01 [1]: 99; number of compounds affected, # decreased [1]: 46; number of compounds affected, # increased [1]: 53; number of compounds affected, Total p < 0.01 [2]: 131; number of compounds affected, # decreased [2]: 27; number of compounds affected, # increased [2]: 104 |
| Cc1c(C)c2c(c(C)c1O)CCC(C)(COc1ccc(CC3SC(=O)NC3=O)cc1)O2 (stereo not shown) [Troglitazone, troglitazone] | 0.77 | 0.82 | 0.92 | 0.63 | 1.24 | 0.91 | 0.95 | 0.86 | 0.92 | 0.77 | 1.42 | 1.08 | 0.98 | 1.63 | 1.58 | 1.17 | 1.18 | 1.33 | 0.85 | 0.86 | Ratio Drug/DMSO: aspartate [3]: 2.06; Ratio Drug/DMSO: gamma-L-glutamyl-L-glutamin [3]: 0.64; Ratio Drug/DMSO: glutamine [3]: 0.76; Ratio Drug/DMSO: o-phosphoethanolamine [3]: 1.50; Ratio Drug/DMSO: oxidized-glutathione [3]: 0.77; Ratio Drug/DMSO: sn-glycerol-3-phosphate [3]: 1.42; Ratio Drug/DMSO: threonine [3]: 0.83; Ratio Drug/DMSO: tryptophan [3]: 0.98 |
